The source of these data is ChEMBL document CHEMBL1153630, “Structure-activity relationship (SAR) of parthenin analogues with pro-apoptotic activity: Development of novel anti-cancer leads” (Bioorg Med Chem Lett, 2009).

The test system of assay [1] is HL-60. Put plainly: Induction of apoptosis in human HL60 cells assessed as DNA population at sub G0/G1 phase at 10 uM after 6 hrs by flow cytometry. It is filed as functional. (In general: In flow cytometry, cells or beads pass a laser one at a time.)
In assay [2] the test system is HL-60. The experiment in a line: Cytotoxicity against human HL60 cells after 48 hrs by MTT assay. It is filed as functional, cell-based. To be noted: HL-60, 48 h.
Another assay has as its system HeLa. The experiment in a line: Cytotoxicity against human HeLa cells after 48 hrs by MTT assay. It counts as functional, cell-based. For orientation: Tetrazolium dyes change colour on reduction, which living cells bring about.
Assay [3] deals with DNA topoisomerase 2-alpha (Homo sapiens) (UniProt P11388). The experiment in a line: Inhibition of human topoisomerase 2-mediated relaxation of supercoiled plasmid DNA at 100 uM after 1 hr by electrophoresis analysis.
Sequence of DNA topoisomerase 2-alpha (Homo sapiens) (P11388 whole entry): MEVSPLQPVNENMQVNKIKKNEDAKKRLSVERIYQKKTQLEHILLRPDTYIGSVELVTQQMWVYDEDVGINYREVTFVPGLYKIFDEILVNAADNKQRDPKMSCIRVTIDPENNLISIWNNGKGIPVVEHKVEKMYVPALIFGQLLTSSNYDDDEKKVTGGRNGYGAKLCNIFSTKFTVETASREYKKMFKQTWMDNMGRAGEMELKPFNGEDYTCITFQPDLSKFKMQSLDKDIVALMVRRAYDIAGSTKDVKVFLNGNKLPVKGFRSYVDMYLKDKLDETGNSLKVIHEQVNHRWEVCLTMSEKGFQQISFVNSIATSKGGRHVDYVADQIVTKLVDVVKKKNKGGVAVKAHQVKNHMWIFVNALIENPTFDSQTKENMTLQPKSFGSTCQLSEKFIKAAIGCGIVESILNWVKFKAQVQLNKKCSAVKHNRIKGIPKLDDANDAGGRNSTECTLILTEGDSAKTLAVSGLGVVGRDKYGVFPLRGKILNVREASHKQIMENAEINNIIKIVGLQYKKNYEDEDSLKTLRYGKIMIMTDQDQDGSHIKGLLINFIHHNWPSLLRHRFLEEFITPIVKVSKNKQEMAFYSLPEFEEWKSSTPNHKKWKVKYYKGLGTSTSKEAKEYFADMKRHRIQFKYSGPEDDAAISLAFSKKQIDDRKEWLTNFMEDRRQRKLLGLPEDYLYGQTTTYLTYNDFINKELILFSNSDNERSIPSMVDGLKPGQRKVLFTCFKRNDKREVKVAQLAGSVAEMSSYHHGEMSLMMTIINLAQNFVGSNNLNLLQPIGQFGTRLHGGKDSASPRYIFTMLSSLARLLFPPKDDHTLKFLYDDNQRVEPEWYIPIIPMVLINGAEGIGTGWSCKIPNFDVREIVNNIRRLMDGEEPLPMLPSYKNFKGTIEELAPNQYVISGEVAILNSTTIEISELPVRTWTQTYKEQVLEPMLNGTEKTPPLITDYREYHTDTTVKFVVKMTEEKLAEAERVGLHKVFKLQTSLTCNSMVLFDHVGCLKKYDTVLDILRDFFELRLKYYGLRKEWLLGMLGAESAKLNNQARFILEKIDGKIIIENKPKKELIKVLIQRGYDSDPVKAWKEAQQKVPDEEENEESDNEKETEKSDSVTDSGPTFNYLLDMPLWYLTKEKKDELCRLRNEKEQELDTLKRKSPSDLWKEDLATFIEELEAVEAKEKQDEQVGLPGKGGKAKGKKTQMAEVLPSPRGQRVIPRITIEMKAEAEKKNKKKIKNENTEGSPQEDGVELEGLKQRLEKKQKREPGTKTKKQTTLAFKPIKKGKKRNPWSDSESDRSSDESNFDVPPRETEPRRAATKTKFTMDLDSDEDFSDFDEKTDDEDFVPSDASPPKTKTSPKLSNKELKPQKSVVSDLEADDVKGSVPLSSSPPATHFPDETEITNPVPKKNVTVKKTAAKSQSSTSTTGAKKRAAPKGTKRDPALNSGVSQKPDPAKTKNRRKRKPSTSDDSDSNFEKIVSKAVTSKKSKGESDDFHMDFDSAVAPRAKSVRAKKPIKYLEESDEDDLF
Assay [4] has as its system HL-60. Put plainly: Inhibition of telomerase expression in human HL60 cells at 10 uM after 6 hrs by Western blot analysis. It is filed as functional. Conditions: HL-60, 6 h. A general note: Immunoblotting shows a protein as a band on a membrane.
For assay [5], the target named is DNA topoisomerase 2-alpha (Homo sapiens) (UniProt P11388). The experiment in a line: Inhibition of human topoisomerase 2-mediated relaxation of supercoiled plasmid DNA at 10 uM after 1 hr by electrophoresis analysis.

Molecules are shown by their SMILES. Activity calls are given as the source filed them. No cut-off for these calls is given here.

One may read the IC50 as the concentration that gives 50% inhibition. A low value points to greater potency. On to `C=C1C(=O)O[C@@H]2[C@H]1CC[C@H](C)[C@]1(O)C=CC(=O)[C@@]21C` [PARTHENIN], for which the Activity in the assay with HL-60 [1] was 13.69%. Moreover, the IC50 in the assay on HL-60 [2] was 17 µM; in the assay on HeLa it was 60 µM.
For the compound `C=C1C(=O)O[C@@H]2[C@H]1CC[C@H](C)[C@]13OC(C)O[C@H]1CC(=O)[C@@]23C` (some centres undefined), the Activity in the assay with HL-60 [1] is recorded as 1.9%. For the same compound, the IC50 with HL-60 [2] was 41 µM; in the assay on HeLa, 70 µM.
On to `C=C1C(=O)O[C@@H]2[C@H]1CC[C@H](C)[C@]1(O)[C@H](OCCC)CC(=O)[C@@]21C`, for which the Activity in the assay with HL-60 [1] amounted to 3.21%. Besides, the results for the IC50 in the assay with HL-60 [2] and with HeLa were 18 µM and 74 µM, respectively.
Turning to `C=C1C(=O)O[C@@H]2[C@H]1CC[C@H](C)[C@]1(O)C=C(/C=C/CCC)C(=O)[C@@]21C`, the Activity with HL-60 [1] was found to be 2.33%. Moreover, the IC50 is 42 µM with HL-60 [2] and 68 µM with HeLa.
On the same counts, the results for `C=C1C(=O)O[C@@H]2[C@H]1CC[C@H](C)[C@]1(O)[C@H](OC)CC(=O)[C@@]21C` are 1.95%, 32 µM and 68 µM.
On the same counts, the results for `C=C1C(=O)O[C@@H]2[C@H]1CC[C@H](C)[C@]13OC(c4ccccc4)O[C@H]1/C(=C/c1ccccc1)C(=O)[C@@]23C` (some centres undefined) are 69.28%, 6 µM and 31 µM.
In the same order, the values of `C=C1C(=O)O[C@@H]2[C@H]1CC[C@H](C)[C@]13OC(CC)O[C@H]1CC(=O)[C@@]23C` (some centres undefined) are 2.71%, 38 µM and 65 µM.
Regarding `C=C1C(=O)O[C@@H]2[C@H]1CC[C@H](C)[C@]1(O)[C@H](O)CC(=O)[C@@]21C`, the Activity in the assay on HL-60 [1] is 1.17%. The IC50 came to 50 µM with HL-60 [2] and 68 µM in the assay with HeLa.
As for `C=C1C(=O)O[C@@H]2[C@H]1CC[C@H](C)[C@]1(O)C=C(C(O)c3ccc4c(c3)OCO4)C(=O)[C@@]21C` (some centres undefined), the Activity in the assay on HL-60 [1] amounted to 2.13%. For the same compound, the IC50 in the assay with HL-60 [2] stood at 18 µM; in the assay with HeLa, 73 µM.
The inhibition is how much of the control response was suppressed. As to `C=C1C(=O)O[C@@H]2[C@H]1CC[C@H](C)[C@]13OC(c4ccc(Cl)cc4)O[C@H]1/C(=C/c1ccc(Cl)cc1)C(=O)[C@@]23C` (some centres undefined), the Activity in the assay on HL-60 [1] was 94.1%. The IC50 with HL-60 [2] amounted to 3 µM; with HeLa, 12 µM. The inhibition result in assay [3] and in assay [5] was “Active” each time. The same compound came in with an inhibition at 10 µM in the assay on HL-60 [4] of 80%.
With `C=C1C(=O)O[C@@H]2[C@H]1CC[C@H](C)[C@]13OCO[C@H]1CC(=O)[C@@]23C`, the Activity in the assay with HL-60 [1] came out at 2.86%. Moreover, the figures for the IC50 in the assay with HL-60 [2] and with HeLa were 49 µM and 65 µM, respectively.
In the same order, the values of `C=C1C(=O)O[C@@H]2[C@H]1CC[C@H](C)[C@]1(O)[C@H](OCCCC)CC(=O)[C@@]21C` are 1.9%, 42 µM and 70 µM.
Regarding `C=C1C(=O)O[C@@H]2[C@H]1CC[C@H](C)[C@]13OC(c4ccc5c(c4)OCO5)O[C@H]1/C(=C/c1ccc4c(c1)OCO4)C(=O)[C@@]23C` (some centres undefined), in the assay with HL-60 [1], the Activity was found to be 58.75%. For the same compound, the IC50 with HL-60 [2] was determined as 5 µM; in the assay on HeLa it was 57 µM.
Consider `C=C1C(=O)O[C@@H]2[C@H]1CC[C@H](C)[C@]1(O)[C@H](OCCO)CC(=O)[C@@]21C`, for which the Activity in the assay on HL-60 [1] worked out at 1.81%. Further, the results for the IC50 with HL-60 [2] and in the assay on HeLa were 44 µM and 72 µM, respectively.
In the case of `C=C1C(=O)O[C@@H]2[C@H]1CCC(C)=C1C=CC(=O)[C@]12C`, in the assay with HL-60 [1], the Activity is reported as 2.95%. Also, the IC50 in the assay on HL-60 [2] was 16 µM; with HeLa it was 74 µM.
With `C[C@H]1CC[C@@H]2[C@@H](OC(=O)C2(O)CBr)[C@]2(C)C(=O)C=C[C@@]12O` (some centres undefined), the Activity with HL-60 [1] is reported as 3.25%. The concentration for half-maximal inhibition (IC50) came out at 12 µM with HL-60 [2] and 64 µM with HeLa.
Take `C=C1C(=O)O[C@@H]2[C@H]1CC[C@H](C)[C@]1(O)[C@@H](O)/C(=C/c3ccc(Cl)cc3)C(=O)[C@@]21C`: in the assay on HL-60 [1], the Activity turned out to be 19.38%. In addition, the IC50 with HL-60 [2] was found to be 9 µM; in the assay on HeLa, 44 µM.
As for `C[C@H]1CC[C@@H]2[C@@H](OC(=O)C2(Br)CBr)[C@]2(C)C(=O)C(Br)C(Br)[C@@]12O` (some centres undefined), the Activity with HL-60 [1] is on record as 18.33%. Also, the results for the IC50 in the assay on HL-60 [2] and with HeLa were 8 µM and 61 µM, respectively.
Turning to `C=C1C(=O)O[C@@H]2[C@H]1CC[C@H](C)[C@]13OCO[C@H]1C(CO)(CO)C(=O)[C@@]23C`, in the assay on HL-60 [1], the Activity is given as 2.61%. The IC50 in the assay on HL-60 [2] is 17 µM; with HeLa, 70 µM.
On to `C=C1C(=O)O[C@@H]2[C@H]1CC[C@H](C)[C@]1(O)C=C(C(O)/C=C/c3ccccc3)C(=O)[C@@]21C` (some centres undefined), for which, in the assay on HL-60 [1], the Activity worked out at 2.44%. Also, the IC50 in the assay with HL-60 [2] amounted to 46 µM; in the assay with HeLa it was 78 µM.
As to `C=C1C(=O)O[C@@H]2[C@H]1CC[C@H](C)[C@]1(O)C=C(C(O)c3ccc(Cl)cc3)C(=O)[C@@]21C` (some centres undefined), the Activity in the assay with HL-60 [1] was determined as 2.76%. Besides, the values for the IC50 with HL-60 [2] and in the assay on HeLa were 17 µM and 70 µM, respectively.
Consider `C=C1C(=O)O[C@@H]2[C@H]1CC[C@H](C)[C@]1(O)[C@H](OCC)CC(=O)[C@@]21C`, for which the Activity with HL-60 [1] was determined as 4.51%. Moreover, the IC50 in the assay with HL-60 [2] amounted to 60 µM; in the assay on HeLa, 76 µM.
As for `CC1C(=O)O[C@@H]2[C@H]1CC[C@H](C)[C@]1(O)C=CC(O)[C@@]21C` (some centres undefined), the Activity in the assay on HL-60 [1] is 1.43%. Also, the half-maximal inhibitory concentration (IC50) came out at 48 µM in the assay on HL-60 [2] and 64 µM with HeLa.
On to `C=C1C(=O)O[C@@H]2[C@H]1CC[C@H](C)[C@]13OC(c4ccc(OC)cc4)O[C@H]1/C(=C/c1ccc(OC)cc1)C(=O)[C@@]23C` (some centres undefined), for which the Activity with HL-60 [1] was found to be 2.17%. Moreover, the results for the IC50 in the assay with HL-60 [2] and in the assay with HeLa were 46 µM and 72 µM, respectively.
On to `C=C1C(=O)O[C@@H]2[C@H]1CC[C@H](C)[C@]13OC(c4ccc(OC)c(OC)c4)O[C@H]1/C(=C/c1ccc(OC)c(OC)c1)C(=O)[C@@]23C` (some centres undefined), for which the Activity in the assay on HL-60 [1] is on record as 81.38%. Also, the IC50 with HL-60 [2] came out at 6 µM; in the assay on HeLa, 32 µM.
As to `C[C@H]1CC[C@H]2[C@H](COCCO)C(=O)O[C@H]2[C@]2(C)C(=O)C[C@@H](OCCO)[C@@]12O`, the Activity in the assay with HL-60 [1] turned out to be 2.19%. Also, the concentration for half-maximal inhibition (IC50) in the assay on HL-60 [2] was 55 µM; in the assay on HeLa it was 72 µM.
`C=C1C(=O)O[C@@H]2[C@H]1CC[C@H](C)[C@]1(O)C=CC(=O)O[C@@]21C`: in the assay on HL-60 [1], the Activity is 2.98%. For the same compound, the values for the 50% inhibitory concentration (IC50) in the assay with HL-60 [2] and in the assay on HeLa were 18 µM and 67 µM, respectively.
Take `C[C@H]1CC[C@@H]2[C@@H](OC(=O)C2(Br)CBr)[C@]2(C)C(=O)C(Br)=C[C@@]12O` (some centres undefined): the Activity in the assay with HL-60 [1] is reported as 2.17%. Besides, the results for the IC50 with HL-60 [2] and in the assay on HeLa were 13 µM and 76 µM, respectively.
As to `CC(=O)OC1C=C[C@@]2(O)[C@@H](C)CC[C@H]3C(C)C(=O)O[C@H]3[C@]12C` (some centres undefined), in the assay with HL-60 [1], the Activity stood at 0.82%. For the same compound, the half-maximal inhibitory concentration (IC50) stood at 48 µM in the assay on HL-60 [2] and 74 µM in the assay with HeLa.
Regarding `C[C@H]1CC[C@H]2[C@H](COCCO)C(=O)O[C@H]2[C@]2(C)C(=O)C=C[C@@]12O`, the Activity with HL-60 [1] was found to be 2.05%. Further, the half-inhibitory concentration (IC50) with HL-60 [2] stood at 44 µM; with HeLa, 76 µM.
Consider `C=C1C(=O)O[C@@H]2[C@H]1CC[C@H](C)[C@]1(O)C=C(C(O)c3ccccc3)C(=O)[C@@]21C` (some centres undefined), for which the Activity with HL-60 [1] is recorded as 13.89%. Further, the IC50 in the assay with HL-60 [2] came out at 9 µM; in the assay on HeLa, 58 µM.
For the compound `C=C1C(=O)O[C@@H]2[C@H]1CC[C@H](C)[C@]1(O)C=C(/C=C/CC)C(=O)[C@@]21C`, in the assay on HL-60 [1], the Activity is listed as 1.6%. For the same compound, the values for the IC50 with HL-60 [2] and in the assay with HeLa were 45 µM and 73 µM, respectively.
Turning to `C=C1C(=O)O[C@@H]2[C@H]1CC[C@H](C)[C@]1(O)C=C(CO)C(=O)[C@@]21C`, the Activity in the assay with HL-60 [1] came out at 3.01%. Moreover, the IC50 in the assay with HL-60 [2] stood at 16 µM; in the assay on HeLa, 65 µM.
In the case of `C[C@H]1CC[C@@H]2[C@@H](OC(=O)C2(Br)CBr)[C@]2(C)C(=O)C=C[C@@]12O` (some centres undefined), in the assay on HL-60 [1], the Activity was 1.93%. The results for the IC50 with HL-60 [2] and in the assay on HeLa were 12 µM and 67 µM, respectively.
Regarding `C=C1C(=O)O[C@@H]2[C@H]1CC[C@H](C)[C@]1(O)C=C(/C=C/CCCCC)C(=O)[C@@]21C`, the Activity in the assay with HL-60 [1] is listed as 6.78%. Moreover, the results for the IC50 in the assay on HL-60 [2] and with HeLa were 24 µM and 47 µM, respectively.
On the same counts, the results for `C=C1C(=O)O[C@@H]2[C@H]1CC[C@H](C)[C@]13OC(/C=C/c4ccccc4)O[C@H]1/C(=C/C=C/c1ccccc1)C(=O)[C@@]23C` (some centres undefined) are 82.97%, 7 µM and 25 µM.
In the same order, the values of `C=C1C(=O)O[C@@H]2[C@H]1CC[C@H](C)[C@]13OC(Cc4ccco4)O[C@H]1/C(=C/Cc1ccco1)C(=O)[C@@]23C` (some centres undefined) are 42.38%, 5 µM and 68 µM.
